The values that follow come from publication PMC12786457, “Studies on the Complexation of Platinum(II) by Some 4-Nitroisothiazoles and the Cytotoxic Activity of the Resulting Complexes” (Molecules, 2025).

For data set [1] the following is noted: cited from earlier work.
Data set [2] concerns A549 (lung adenocarcinoma). Description: SRB (sulforhodamine B) viability assay, A549. It counts as cell-based, human. The note with it: SRB assay. Here is the method: (§1) The cytotoxicity of the complexes C1–C5 was estimated by examining cell viability using the sulforhodamine B assay. […] However, due to the very poor solubility of the most polar complex C5 in acetone, its initial solution had to be prepared in polar N,N-dimethylacetamide (DMA) (see Section 3.7). Cisplatin was used as the reference drug. The results are presented as IC50 (50% inhibitory concentration), i.e., concentrations that reduce cell survival by 50%. The test was conducted on three cancer cell lines and one normal healthy cell line, namely, breast adenocarcinoma (MCF-7), ovarian adenocarcinoma (ES-2), lung adenocarcinoma (A549), and murine embryonic fibroblast (BALB/3T3).
(§2) Three solid tumor cell lines were used in this study: MCF-7 (breast adenocarcinoma), ES-2 (ovarian adenocarcinoma), and A549 (lung adenocarcinoma). The BALB/3T3 (mouse embryonic fibroblast) cell line was used as a comparative nonpathological tissue. All cell lines were purchased from the American Type Culture Collection (ATCC, Rockville, MD, USA). The preparation of cell cultures for cytotoxicity experiments is described in detail in the following article.
(§3) The initial solutions for subsequent dilutions in biological medium were prepared in a similar manner as described previously. […] The complex C5 was dissolved in the dimethylacetamide (DMA). All the initial solutions were prepared ex tempore and then were added to the culture medium 1:9 (v/v) to obtain a stock solution of 1 mg/mL.
(§4) The test was prepared and performed in the same manner as detailed in the following cited works.

Data set [3] has as its system BALB/3T3 (mouse embryonic fibroblast). Description: SRB (sulforhodamine B) viability assay, normal cells BALB/3T3. It counts as cell-based. The note with it: normoxia, read-out: IC50 ± SD, Normal Cells BALB/3T3, Normoxia. The method, then:
as §1, §2, §3, §4

For data set [4], the system named is ES-2 (ovarian adenocarcinoma). Description: SRB (sulforhodamine B) viability assay, ES-2. It is filed as cell-based, human. The method, then: as §1, §2, §3, §4
The subject of data set [5] is MCF-7 (breast adenocarcinoma). Briefly: SRB (sulforhodamine B) viability assay, MCF-7. The note with it: SRB assay. It counts as cell-based, human. Here is the method: as §1, §2, §3, §4
For orientation: The SRB assay estimates cell density from bound dye.

Data set [6] in a line: Solubility in solvents (qualitative). It is filed as physicochemical.
Data set [7] is described as follows: TLC Rf as a measure of relative lipophilicity. It counts as physicochemical. The following applies: silica gel TLC Al foils.
Data set [8] can be described thus: TLC Rf as a measure of relative lipophilicity. The note with it: silica gel TLC Al foils. It is filed as physicochemical. Here is the method:
Measurement of the melting points (m.p.) of the obtained compounds was performed with the Büchi M560 melting point device (BÜCHI Labortechnik AG, CH-9230 Flawil/SG, Flawil, Switzerland) and was uncorrected. The ESI-MS (electrospray ionization mass spectroscopy) spectra were recorded with the compactTM Bruker Daltonics Electrospray Ionization Quadrupole Time-of-Flight (ESI-Q-TOF) spectrometer (Bruker Daltonics GmbH, Bremen, Germany). The ESI-MS measurements for new compounds were performed in both positive- and negative-ion mode in LC-MS-grade using LC-MS grade methanol as a solvent. ESI-MS spectral analysis and the simulation of the theoretical monoisotopic mass of detected ions were performed using Bruker Compass Data Analysis 4.2 software (Bruker Daltonics GmbH, Bremen, Germany). All ^1H and ^13C-NMR spectra were recorded on the following instruments: Bruker NMR AVANCE III™ 600 MHz spectrometer with Ascend™ technology magnet with a quadruple resonance NMR ‘inverse’ cryoprobe (Bruker Corporation, Billerica, MA, USA) and/or Bruker ARX-300 (300 MHz) spectrometer (Bruker Analytische Messtechnik GmbH, Rheinstetten, Germany). The NMR measurements of samples of the compounds were carried out at room temperature (20–25 °C) using 5 mm tubes in deuterated acetone-d6. NMR chemical shifts were referenced to the solvent signal, i.e., for ^1H-NMR: δ (quintet of residual acetone-d6) = 2.05 ppm and for ^13C-NMR: δ (septet of acetone-d6) = 29.84 ppm. The Nicolet iS50 FT-IR spectrophotometer (Thermo Fisher Scientific Inc., Waltham, MA, USA) was used to record the Attenuated Total Reflectance IR (ATR-FT-IR) spectra (at MIR range 4000–450 cm^−1). Recording of spectra was performed on the diamond crystal surface (32 scans, resolution: 1 cm^−1, measurement temperature: 20–25 °C) with ATR intensity correction in the Laboratory of Elemental Analysis and Structural Research, Faculty of Pharmacy, Wroclaw Medical University. A Fourier transform, Bruker VERTEX 70V vacuum spectrometer equipped with an air-cooled DTGS detector was used to obtain the Far-IR (far-infrared) spectra (below 500 cm^−1) of the Pt(II) complexes. The spectra measurements were conducted with the ATR accessory, such as a diamond ATR crystal, in the resolution of 1 cm^−1 with 64 scans in the Laboratory of Vibrational Spectroscopy of the Faculty of Chemistry at Wrocław University of Science and Technology. No ATR intensity correction was applied to Far-IR spectra. Omnic 9.3.30 and Omnic Specta 2.0 software (Thermo Fisher Scientific Inc.) was used to process and analyze spectra. A double beam U-2800 Spectrophotometer (Hitachi—Science & Technology, Tokyo, Japan) was used to record UV spectra of Pt-complexes (C1 and C2) and reaction rate measurements of the GSH complexes. Dioxane solutions of complexes were used in the following concentrations: c = 2 × 10^−5 M and 3 × 10^−5 M, respectively, for C1 and C2. Measurement of UV spectra was conducted in quartz cuvettes (path length = 10.0 mm) in the range 190–400 nm (sampling interval 1 nm, scan speed 200 nm/min). All UV experiments were performed in the Laboratory of Elemental Analysis and Structural Research, Faculty of Pharmacy, Wroclaw Medical University. Baselines were corrected with pure dioxane as the reference solvent. Thin-layer chromatography (TLC) was used to monitor the progress of the reaction course and determine the purity of the synthesized compounds. Silica gel on TLC Al foils with fluorescent indicator 254 nm (Sigma-Aldrich, Merck Group, Darmstadt, Germany) was used as the stationary phase and chloroform–acetone mixtures (volume ratios 9:1, 7:3, and 1:1) as the eluent. Detection of Pt(II) compounds in the chromatograms was performed using a 0.5% acetone solution of rubeanic acid (dithiooxamide), and organic impurities were detected by observing the plates under UV light at 250 nm. […]
The source holds these as a separate data set.

Where [9] appears, read: earlier work of the authors, same methodology.
[10] abbreviates: normoxia, read-out: IC50 ± SD, A549 (Lung), Normoxia.
The mark [11] stands for this setting: hypoxia, read-out: IC50 ± SD, ES-2 (Ovarian), Hypoxia.
Setting [12] is: normoxia, read-out: IC50 ± SD, ES-2 (Ovarian), Normoxia.
Setting [13] is: hypoxia, read-out: IC50 ± SD, MCF-7 (Breast), Hypoxia.
Where [14] appears, read: normoxia, read-out: IC50 ± SD, MCF-7 (Breast), Normoxia.

“Also recorded” adds a separate entry of the source. Where two headings read alike, the source gives them in different places.

Take `O=C(O)C(=O)O.[NH-][C@@H]1CCCC[C@H]1[NH-].[Pt+2]` [Oxaliplatin]: the “Half-time, t1/2 of reaction with GSH” value in data set [1] (literature value, similar conditions) is 44 min [35].

Turning to `Cc1noc(C)c1[N+](=O)[O-].Cc1noc(C)c1[N+](=O)[O-].[Cl][Pt@SP1][Cl]` [cis-Pt(NO2Isoxazol)2Cl2], the “Half-time, t1/2 of reaction with GSH” value in data set [1] (setting [9]) is 42 min [18].

On to `N.N.O=C([O-])C1(C(=O)[O-])CCC1.[Pt+2]` [Carboplatin], for which, in data set [1] (literature value), the “Half-time, t1/2 of reaction with GSH” value is 16.7–32.7 h [35].

For the compound `Cn1cc([N+](=O)[O-])cn1.Cn1cc([N+](=O)[O-])cn1.[Cl][Pt][Cl]` [trans-Pt(NO2Pyraz)2Cl2, trans-[PtCl2 (1-methyl-4-nitropyrazole)2]], the “Half-time, t1/2 of reaction with GSH” value in data set [1] (setting [9]) was 13 min [17].

As to `N.N.[Cl][Pt][Cl]` [Cisplatin, cis-diamminodichloroplatinum, reference compound], the IC50 in data set [2] (hypoxia, read-out: IC50 ± SD, A549 (Lung), Hypoxia) came to 14.8 ± 1.93 µM; in data set [2] (setting [10]), 12.5 ± 1.64 µM; in data set [3], 8.1 ± 5.61 µM; in data set [4] (setting [11]), 6.28 ± 2.19 µM; in data set [4] (setting [12]), 9.85 ± 4.68 µM; in data set [5] (setting [13]), 9.74 ± 5.84 µM. In data set [5] (setting [14]), the IC50 worked out at 14.4 ± 1.4 µM.

Regarding `Cc1noc(C)c1[N+](=O)[O-].Cc1noc(C)c1[N+](=O)[O-].[Cl][Pt][Cl]` [trans-Pt(NO2Isoxazol)2Cl2, trans-dichlorobis(3,5-dimethyl-4-nitro-isoxazole)platinum(II)], the “Half-time, t1/2 of reaction with GSH” value in data set [1] (setting [9]) was 18 min [18].

For `Cn1cc([N+](=O)[O-])cn1.Cn1cc([N+](=O)[O-])cn1.[Cl][Pt@SP1][Cl]` [cis-Pt(NO2Pyraz)2Cl2], the “Half-time, t1/2 of reaction with GSH” value in data set [1] (setting [9]) was 83 min [17].

With “cis-Dichlorobis(3-methyl-4-nitroisothiazole-5-carboxamide)platinum(II) [C5]”, the “IC50 ± SD, A549 (Lung), Hypoxia” value in data set [2] (hypoxia) is “inactive”. In addition, the IC50 was 66.2 ± 1.15 µM in data set [2] (setting [10]); 64.2 ± 15.8 µM in data set [3]; 50.1 ± 7.97 µM in data set [4] (setting [11]); 62.5 ± 22.7 µM in data set [4] (setting [12]); 67.3 ± 28.3 µM in data set [5] (setting [13]); 57.6 ± 7.69 µM in data set [5] (setting [14]). For the same compound, the solubility in acetone entry in data set [6] (acetone) is “very poorly soluble; also recorded: weakly soluble”. Moreover, in data set [6] (acetonitrile, relative to acetone), the solubility in acetonitrile entry is listed as “slightly better”. Further, in data set [6] (chloroform), the solubility in chloroform entry is recorded as “practically insoluble”. Moreover, the “Rf, Eluent: Chlorofom:Acetone Ratio 9:7 Vol.” value in data set [7] stood at 0.215. The “Rf, Eluent: Chlorofom:Acetone Ratio 1:1 Vol.” value in data set [8] is reported as 0.655. In data set [8], the “Rf, Eluent: Chlorofom:Acetone Ratio 9:1 Vol.” value is 0.005.

In the case of `N.N.[Cl][Pt+2][Cl]` [Transplatin], the “Half-time, t1/2 of reaction with GSH” value in data set [1] (literature value) is 4 min [36].
